# Measurements published in patent US7375222B2, “2,4,6-Triamino-1,3,5-triazine derivative” (Astellas Pharma Inc., priority 2002, dated 2008).
# Where a name gives a salt, the structure may show the parent alone.
# Tests used:
# BEC 1 potassium channel = molecular target: T1, BEC 1 potassium channel (Homo sapiens, UniProt Q9ULD8); experiment: BEC 1 inhibitory activity using released amount of 86Rb ions from BEC 1-expressing cells; type: cell-based; conditions: 86Rb ion release; for IC50: BEC 1-stably expressing CHO (dhfr-deficient) cell, 100 mM KCl stimulation, read-out: BEC1 IC50; for Inhibition ratio: concentration of test compound is 3 μM
# T1 construct: expressed in transfected cells
# T1 sequence (Q9ULD8 1-1083): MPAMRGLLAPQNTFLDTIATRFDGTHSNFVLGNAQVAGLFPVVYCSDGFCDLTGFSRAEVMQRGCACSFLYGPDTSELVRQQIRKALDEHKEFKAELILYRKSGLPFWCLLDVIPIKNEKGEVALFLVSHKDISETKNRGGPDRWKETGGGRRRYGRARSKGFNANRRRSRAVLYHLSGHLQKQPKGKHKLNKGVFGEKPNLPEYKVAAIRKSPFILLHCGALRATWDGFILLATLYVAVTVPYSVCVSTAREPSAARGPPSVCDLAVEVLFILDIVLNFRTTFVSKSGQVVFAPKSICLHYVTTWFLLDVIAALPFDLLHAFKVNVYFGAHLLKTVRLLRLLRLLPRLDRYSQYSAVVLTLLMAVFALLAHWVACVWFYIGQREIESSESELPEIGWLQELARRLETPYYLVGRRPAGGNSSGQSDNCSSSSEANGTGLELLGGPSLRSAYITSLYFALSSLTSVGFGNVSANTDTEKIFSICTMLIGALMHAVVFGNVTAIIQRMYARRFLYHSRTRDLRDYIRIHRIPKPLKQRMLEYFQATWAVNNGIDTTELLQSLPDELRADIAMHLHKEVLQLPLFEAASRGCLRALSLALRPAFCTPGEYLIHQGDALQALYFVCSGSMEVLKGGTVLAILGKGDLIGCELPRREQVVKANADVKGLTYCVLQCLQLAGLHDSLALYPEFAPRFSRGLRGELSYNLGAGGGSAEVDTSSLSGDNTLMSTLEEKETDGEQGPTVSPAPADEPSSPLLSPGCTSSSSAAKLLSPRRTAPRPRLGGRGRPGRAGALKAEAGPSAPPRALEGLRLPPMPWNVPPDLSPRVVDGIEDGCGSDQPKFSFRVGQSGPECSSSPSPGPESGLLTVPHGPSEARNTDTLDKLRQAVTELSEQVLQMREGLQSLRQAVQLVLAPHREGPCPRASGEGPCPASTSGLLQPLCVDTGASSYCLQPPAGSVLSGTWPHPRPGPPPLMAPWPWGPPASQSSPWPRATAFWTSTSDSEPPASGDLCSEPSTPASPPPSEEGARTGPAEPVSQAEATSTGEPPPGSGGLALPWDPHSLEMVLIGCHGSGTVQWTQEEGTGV
# Method: In general, the potassium channel can pass Rb^+ ion similar to K^+ ion, so that the channel activity can be measured using release of a radioisotope ^86Rb^+ as a marker. By incubating cells expressing the novel potassium channel protein together with ^86RbCl (e.g., 18 hr, 37° C.), ^86Rb^+ can be incorporated into the cells. The cells are washed with a low K^+ concentration physiological saline (e.g., 4.5 mM K^+) and then suspended in the same solution. When a high K^+ concentration solution (e.g., 100 mM in final concentration) is added to the cell suspension, membrane potential of the cell is depolarized and the potassium channel therefore is activated. As a result, the intracellular ^86Rb^+ is released into the extracellular part, thus radioactivity of the extracellular solution can be used as a marker of the channel activity. It is possible to screen a compound and a peptide capable of modifying activity of the BEC 1 potassium channel protein, by comparing the radioactivity released into the extracellular part when the high K^+ concentration solution is added in the presence and absence of each drug to be tested.
# Method for Measuring BEC 1 Inhibitory Activity of Compounds Using Released Amount of ^86Rb ions as the Index
# The channel activity of BEC 1 was measured in accordance with the method described in WO 99/37677, using amount of a radioisotope ^86Rb ion released from a BEC 1-expressing cell as the index. That is, when an ^86Rb ion-incorporated BEC 1-expressing cell was stimulated with 100 mM KCl, the radioactivity released from the cell was used as the channel activity of BEC 1. The ^86Rb ions were incorporated into a BEC 1-stably expressing cell by culturing the cell (3 hours, 37° C.) in the presence of ^86RbCl (0.5 μCi/ml), and the un-incorporated ^86Rb ions were removed by washing three times with HEPES-buffered saline (pH 7.4, 2.5 mM KCl). The cells were incubated with HEPES-buffered saline containing a compound to be tested at room temperature for 15 minutes and then further incubated with 100 mM KCl-containing HEPES-buffered saline (pH 7.4) containing the compound to be tested at room temperature for 5 minutes. The extracellular medium was recovered, and then the remaining cells were lysed with 0.1 N NaOH and recovered.
# The Cerenkov radioactivity of the extracellular medium and cell lysate was respectively measured, and their total was used as the total radioactivity. The released amount of ^86Rb ions was expressed by the percentage of extracellular medium radioactivity based on the total radioactivity. The value obtained in the presence of the compound was used as a test value, and the value obtained in the absence of the compound as a control value and the value obtained when not stimulated with 100 mM KCl as a blank value. Inhibitory action of each compound was expressed by % inhibition, namely (control value−test value)×100/(control value−blank value), or by an IC50 value calculated from the % inhibition. As the test results of typical compounds are shown in the following Tables 2 and 3, it was confirmed that said compounds have the BEC 1 potassium channel inhibitory action.
# In this connection, as the BEC 1-expressing cell, a BEC 1-stably expressing cell prepared in accordance with the method described in WO 99/37677 using a dihydrofolate reductase (dhfr)-deficient strain of a Chinese hamster ovary cell was used.
IC50 (BEC 1 potassium channel),Compound,other results
9500 nM,CONc1nc(Nc2ccccc2)nc(Nc2ccc(F)cc2)n1 [Example 789],–
4700 nM,CCONc1nc(Nc2ccccc2)nc(Nc2ccc(F)cc2)n1 [Example 790],–
2200 nM,CN(C)Nc1nc(Nc2ccccc2)nc(Nc2ccc(F)cc2)n1 [Example 791],–
3100 nM,CCN(CC)CCCC(C)Nc1nc(Nc2ccccc2)nc(Nc2ccc(F)cc2)n1 (centres unmarked) [Example 794],–
420 nM,COCCNc1nc(Nc2ccccc2)nc(Nc2ccc(OC)cc2)n1 [Example 808],–
1400 nM,Nc1cccc(CNc2nc(Nc3ccccc3)nc(Nc3ccc(F)cc3)n2)n1 [Example 819],–
84 nM,"c1ccc(Nc2nc(NCc3ccncc3)nc(Nc3ccccc3)n2)cc1 [compound 1, N,N′-diphenyl-N″-(4-pyridylmethyl)-1,3,5-triazine-2,4,6-triamine]",–
360 nM,C#CCNc1nc(Nc2ccccc2)nc(Nc2ccccc2)n1 [compound 16],–
1100 nM,COCCCNc1nc(Nc2ccccc2)nc(Nc2ccccc2)n1 [compound 18],–
1300 nM,CSCCCNc1nc(Nc2ccccc2)nc(Nc2ccccc2)n1 [compound 19],–
590 nM,OCCCNc1nc(Nc2ccccc2)nc(Nc2ccccc2)n1 [compound 21],–
240 nM,OCCOCCNc1nc(Nc2ccccc2)nc(Nc2ccccc2)n1 [compound 23],–
480 nM,O=C1OCCC1CNc1nc(Nc2ccccc2)nc(Nc2ccccc2)n1 (centres unmarked) [compound 24],–
390 nM,Fc1ccc(Nc2nc(NCc3ccccc3)nc(Nc3ccc(F)cc3)n2)cc1 [compound 28],–
350 nM,Fc1ccc(CNc2nc(Nc3ccc(F)cc3)nc(Nc3ccc(F)cc3)n2)cc1 [compound 29],–
73 nM,Fc1ccc(Nc2nc(NCc3ccco3)nc(Nc3ccc(F)cc3)n2)cc1 [compound 30],–
490 nM,Fc1ccc(Nc2nc(NCc3cccs3)nc(Nc3ccc(F)cc3)n2)cc1 [compound 31],–
240 nM,COCCNc1nc(Nc2ccc(F)cc2)nc(Nc2ccc(F)cc2)n1 [compound 35],–
480 nM,Fc1ccc(Nc2nc(NCC3CCCO3)nc(Nc3ccc(F)cc3)n2)cc1 (centres unmarked) [compound 36],–
260 nM,OCCCCCNc1nc(Nc2ccc(F)cc2)nc(Nc2ccc(F)cc2)n1 [compound 37],–
180 nM,OCCOCCNc1nc(Nc2ccc(F)cc2)nc(Nc2ccc(F)cc2)n1 [compound 38],–
630 nM,COc1cccc(Nc2nc(Nc3cccc(OC)c3)nc(NC(C)C)n2)c1 [compound 40],–
400 nM,CC(C)Nc1nc(Nc2ccc3c(c2)OCO3)nc(Nc2ccc3c(c2)OCO3)n1 [compound 41],–

# The next lines start with the compound.
Compound,IC50 (BEC 1 potassium channel),other results
COc1ccc(Nc2nc(Nc3ccccc3)nc(NC(C)C)n2)cc1 (as salt: HCl) (hydrate or solvate) [Ex 48],–,melting point: 174 to 177 °C
CONc1nc(Nc2ccccc2)nc(Nc2ccc(F)cc2)n1 (as salt: HCl) (hydrate or solvate) [Example 789],–,melting point: 140 to 141 °C
CCONc1nc(Nc2ccccc2)nc(Nc2ccc(F)cc2)n1 (as salt: HCl) (hydrate or solvate) [Example 790],–,melting point: 141 to 143 °C
O=C1OCCC1CNc1nc(Nc2ccccc2)nc(Nc2ccccc2)n1 (centres unmarked) (as salt: HCl) (hydrate or solvate) [compound 24],–,melting point: 138 to 140 °C
Fc1ccc(Nc2nc(NCc3ccccc3)nc(Nc3ccc(F)cc3)n2)cc1 (as salt: HCl) (hydrate or solvate) [compound 28],–,melting point: 176 to 178 °C
Fc1ccc(Nc2nc(NCC3CCCO3)nc(Nc3ccc(F)cc3)n2)cc1 (centres unmarked) (as salt: HCl) (hydrate or solvate) [compound 36],–,melting point: 171 to 174 °C
CC(C)Nc1nc(Nc2ccccc2)nc(Nc2ccc(Cl)cc2)n1 (as salt: HCl) [Ex 46],–,melting point: 201 to 203 °C
CC(C)Nc1nc(Nc2ccccc2)nc(Nc2ccc(Cl)cc2)n1 [Ex 46],490 nM,–
Cc1ccc(Nc2nc(Nc3ccccc3)nc(NC(C)C)n2)cc1 [Ex 47],720 nM,–
COc1ccc(Nc2nc(Nc3ccccc3)nc(NC(C)C)n2)cc1 [Ex 48],290 nM,–
CC(C)Nc1nc(Nc2ccccc2)nc(Nc2ccc(C(F)(F)F)cc2)n1 [Ex 49],140 nM,–
[O-][n+]1ccc(CCNc2nc(Nc3ccccc3)nc(Nc3ccccc3)n2)cc1 [Example 740],4900 nM,–
c1ccc(Nc2nc(NCC3CCOCC3)nc(Nc3ccccc3)n2)cc1 [Example 741],520 nM,–
CC(CCCC(C)(C)O)Nc1nc(Nc2ccccc2)nc(Nc2ccccc2)n1 (centres unmarked) [Example 742],1400 nM,–
Fc1ccc(Nc2nc(NCc3ccnc(F)c3)nc(Nc3ccc(F)cc3)n2)cc1 [Example 743],100 nM,–
Nc1cc(CNc2nc(Nc3ccccc3)nc(Nc3ccc(F)cc3)n2)ccn1 [Example 747],3600 nM,–
Fc1ccc(Nc2nc(NCc3ccco3)nc(Nc3ccccc3)n2)cc1 [Example 764],47 nM,–
COCCNc1nc(Nc2ccccc2)nc(Nc2ccc(F)cc2)n1 [Example 771],250 nM,–
OCCNc1nc(Nc2ccccc2)nc(Nc2ccc(F)cc2)n1 [Example 773],1500 nM,–
OCCCNc1nc(Nc2ccccc2)nc(Nc2ccc(F)cc2)n1 [Example 774],550 nM,–
OCCCCNc1nc(Nc2ccccc2)nc(Nc2ccc(F)cc2)n1 [Example 775],110 nM,–
OCCCCCNc1nc(Nc2ccccc2)nc(Nc2ccc(F)cc2)n1 [Example 776],140 nM,–
OCCOCCNc1nc(Nc2ccccc2)nc(Nc2ccc(F)cc2)n1 [Example 777],210 nM,–
C[C@H](CO)Nc1nc(Nc2ccccc2)nc(Nc2ccc(F)cc2)n1 [Example 779],700 nM,–
Fc1ccc(Nc2nc(NCc3ccnc(F)c3)nc(Nc3ccc(Cl)cc3)n2)cc1 [Example 797],650 nM,–
CNc1nc(Nc2ccccc2)nc(Nc2ccccc2)n1 [compound 52],–,Inhibition ratio (BEC 1 potassium channel): 31%
CCNc1nc(Nc2ccccc2)nc(Nc2ccccc2)n1 [compound 53],–,Inhibition ratio (BEC 1 potassium channel): 59%
CCCNc1nc(Nc2ccccc2)nc(Nc2ccccc2)n1 [compound 54],–,Inhibition ratio (BEC 1 potassium channel): 64%
c1ccc(Nc2nc(Nc3ccccc3)nc(NC3CC3)n2)cc1 [compound 62],–,Inhibition ratio (BEC 1 potassium channel): 44%
"N-isopropyl-N′,N″-bis(4-methoxyphenyl)-1,3,5-triazine-1,3,5-triamine hydrochloride [compound 39]",660 nM,–
